# Laboratory results taken from US20240018161A1, “MODULATORS OF CYSTIC FIBROSIS TRANSMEMBRANE CONDUCTANCE REGULATOR” (VERTEX PHARMACEUTICALS INCORPORATED, priority 2020, published 2024).
# Biological target: CFTR-mediated chloride transport in human intestinal epithelial enteroid cells (Homo sapiens, UniProt P13569)
# Assay: Membrane potential dye, Enteroid Assay A
# Format: cell-based
# Conditions: Enteroid Assay A; for EC50: read-out: Ent. A EC50
# Procedure, shortened: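 Membrane potential dye (20 μM methyl oxonol, with 30 μM CaCCinh-A01 and 30 μM Chicago Sky Blue) loaded 25 min at room temperature into ROCK-inhibitor-seeded human enteroid cells. Chloride-free stimulation buffer triggered transport, followed by 15 min fluorescence. % Activity relative to 3 μM/3 μM/300 nM triple-combination control.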
# CFTR-mediated chloride transport in human intestinal epithelial enteroid cells, sequence (P13569 with tags, fused parts or gaps DEL508-508): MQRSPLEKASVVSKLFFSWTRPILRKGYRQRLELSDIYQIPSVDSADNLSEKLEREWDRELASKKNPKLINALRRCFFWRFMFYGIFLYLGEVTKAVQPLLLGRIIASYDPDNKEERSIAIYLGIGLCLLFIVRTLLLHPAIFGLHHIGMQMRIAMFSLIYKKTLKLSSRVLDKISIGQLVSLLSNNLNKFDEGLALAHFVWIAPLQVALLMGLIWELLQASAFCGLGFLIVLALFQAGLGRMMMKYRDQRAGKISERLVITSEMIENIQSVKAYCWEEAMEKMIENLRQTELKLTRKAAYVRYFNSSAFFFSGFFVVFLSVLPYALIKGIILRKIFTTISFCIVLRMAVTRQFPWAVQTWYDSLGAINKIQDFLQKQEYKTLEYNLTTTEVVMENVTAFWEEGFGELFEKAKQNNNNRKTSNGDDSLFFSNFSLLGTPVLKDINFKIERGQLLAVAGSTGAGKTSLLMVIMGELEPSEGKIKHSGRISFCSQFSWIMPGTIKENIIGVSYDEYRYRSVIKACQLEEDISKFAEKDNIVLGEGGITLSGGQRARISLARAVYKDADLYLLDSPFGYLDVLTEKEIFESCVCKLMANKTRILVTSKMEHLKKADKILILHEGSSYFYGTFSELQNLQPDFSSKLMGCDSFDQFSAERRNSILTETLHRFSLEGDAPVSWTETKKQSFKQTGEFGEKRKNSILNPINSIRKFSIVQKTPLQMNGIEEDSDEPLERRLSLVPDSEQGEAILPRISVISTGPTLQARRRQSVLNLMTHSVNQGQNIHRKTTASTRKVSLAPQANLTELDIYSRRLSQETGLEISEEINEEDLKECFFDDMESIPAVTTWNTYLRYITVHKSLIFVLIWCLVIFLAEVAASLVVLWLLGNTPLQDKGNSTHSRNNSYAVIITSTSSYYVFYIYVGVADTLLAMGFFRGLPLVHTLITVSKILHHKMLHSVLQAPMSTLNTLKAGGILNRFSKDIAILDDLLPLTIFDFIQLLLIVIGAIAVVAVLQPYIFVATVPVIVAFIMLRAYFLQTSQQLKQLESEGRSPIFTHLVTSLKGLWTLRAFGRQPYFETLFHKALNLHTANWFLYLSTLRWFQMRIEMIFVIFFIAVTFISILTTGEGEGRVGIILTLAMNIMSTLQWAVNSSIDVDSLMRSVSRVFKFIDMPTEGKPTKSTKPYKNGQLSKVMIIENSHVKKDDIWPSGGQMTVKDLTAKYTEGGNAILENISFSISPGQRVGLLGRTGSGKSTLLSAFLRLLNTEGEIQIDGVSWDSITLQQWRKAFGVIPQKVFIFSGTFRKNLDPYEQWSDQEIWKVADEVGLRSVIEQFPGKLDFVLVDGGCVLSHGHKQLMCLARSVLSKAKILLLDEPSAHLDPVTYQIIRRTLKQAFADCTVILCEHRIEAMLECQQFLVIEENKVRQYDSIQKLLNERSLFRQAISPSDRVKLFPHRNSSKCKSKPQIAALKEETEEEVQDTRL
SMILES,Ent. A Max Activity (%),EC50 [µM]
"Cc1cccc(C)c1-c1cc2nc(n1)NS(=O)(=O)c1cccc(c1)C(=O)N1CCN(C(=O)C(C)(C)C)C[C@H](C1)O2 [Compound 80, (16R)-12-(2,6-Dimethylphenyl)-18-(2,2-dimethylpropanoyl)-15-oxa-8λ^6-thia-1,9,11,18,22-pentaazatetracyclo[14.4.1.13,7.110,14]tricosa-3(23),4,6,10,12,14(22)-hexaene-2,8,8-trione]",+++ (+++ is >600%),3 to 30
"Cc1cccc(C)c1-c1cc2nc(n1)NS(=O)(=O)c1cccc(c1)C(=O)N1CCN(C(=O)CC(C)(C)C)C[C@H](C1)O2 [Compound 81, (16R)-18-(3,3-Dimethylbutanoyl)-12-(2,6-dimethylphenyl)-15-oxa-8λ^6-thia-1,9,11,18,22-pentaazatetracyclo[14.4.1.13,7.110,14]tricosa-3(23),4,6,10,12,14(22)-hexaene-2,8,8-trione]",+++ (+++ is >600%),1 to 3
"Cc1cccc(C)c1-c1cc2nc(n1)NS(=O)(=O)c1cccc(c1)C(=O)N1CCN(Cc3ccccc3)CC(C)(C1)O2 (stereo not drawn) [Compound 82, 18-Benzyl-12-(2,6-dimethylphenyl)-16-methyl-15-oxa-8λ^6-thia-1,9,11,18,22-pentaazatetracyclo[14.4.1.13,7.110,14]tricosa-3(23),4,6,10,12,14(22)-hexaene-2,8,8-trione]",+++ (+++ is >600%),1 to 3
"Cc1cccc(C)c1-c1cc2nc(n1)NS(=O)(=O)c1cccc(c1)C(=O)N1CCN(C3CC4(CCCC4)C3)C[C@@H](O2)[C@H]1CC(C)C [Compound 83, (16R,21R)-12-(2,6-Dimethylphenyl)-21-(2-methylpropyl)-18-{spiro[3.4]octan-2-yl}-15-oxa-8λ^6-thia-1,9,11,18,22-pentaazatetracyclo[14.4.1.13,7.110,14]tricosa-3(23),4,6,10(22),11,13-hexaene-2,8,8-trione]",+++ (+++ is >600%),< 1
"Cc1cccc(C)c1-c1cc2nc(n1)NS(=O)(=O)c1cccc(c1)C(=O)N1CCNCC(O2)C1CC(C)C (stereo not drawn) [Compound 93, 12-(2,6-Dimethylphenyl)-21-(2-methylpropyl)-15-oxa-8λ^6-thia-1,9,11,18,22-pentaazatetracyclo[14.4.1.13,7.110,14]tricosa-3(23),4,6,10(22),11,13-hexaene-2,8,8-trione]",+++ (+++ is >600%),1 to 3
"Cc1cccc(C)c1-c1cc2nc(n1)NS(=O)(=O)c1cccc(c1)C(=O)N1C[C@@H](CN(CC(F)(F)F)C[C@@H]1CC(C)C)O2 [Compound 98, (16R,20S)-12-(2,6-Dimethylphenyl)-20-(2-methylpropyl)-18-(2,2,2-trifluoroethyl)-15-oxa-8λ^6-thia-1,9,11,18,22-pentaazatetracyclo[14.4.1.13,7.110,14]tricosa-3(23),4,6,10(22),11,13-hexaene-2,8,8-trione]",+ (+ is <30%),–
"Cc1cccc(C)c1-c1cc2nc(n1)NS(=O)(=O)c1cccc(c1)C(=O)N1C[C@@H](CNC[C@H]1C(C)C)O2 [Compound 123, (16R,20R)-12-(2,6-Dimethylphenyl)-20-(propan-2-yl)-15-oxa-8λ^6-thia-1,9,11,18,22-pentaazatetracyclo[14.4.1.13,7.110,14]tricosa-3(23),4,6,10(22),11,13-hexaene-2,8,8-trione]",++ (++ is 30-60%),1 to 3
"Cc1cccc(C)c1-c1cc2nc(n1)NS(=O)(=O)c1cccc(c1)C(=O)N1C[C@@H](CN(C3CCC(F)(F)CC3)C[C@H]1C(C)C)O2 [Compound 126, (16R,20R)-18-(4,4-Difluorocyclohexyl)-12-(2,6-dimethylphenyl)-20-(propan-2-yl)-15-oxa-8λ^6-thia-1,9,11,18,22-pentaazatetracyclo[14.4.1.13,7.110,14]tricosa-3(23),4,6,10(22),11,13-hexaene-2,8,8-trione]",+++ (+++ is >600%),< 1
"Cc1cccc(C)c1-c1cc2nc(n1)NS(=O)(=O)c1cccc(c1)C(=O)N1C[C@@H](CN(C3CC4(CCCC4)C3)C[C@H]1C(C)C)O2 [Compound 127, (16R,20R)-12-(2,6-dimethylphenyl)-20-(propan-2-yl)-18-{spiro[3.4]octan-2-yl}-15-oxa-8λ^6-thia-1,9,11,18,22-pentaazatetracyclo[14.4.1.13,7.110,14]tricosa-3(23),4,6,10(22),11,13-hexaene-2,8,8-trione]",++ (++ is 30-60%),< 1

# Other lines, results leading:
Ent. A Max Activity (%),EC50 [µM],SMILES
+++ (+++ is >600%),< 1,"Cc1cccc(C)c1-c1cc2nc(n1)NS(=O)(=O)c1cccc(c1)C(=O)N1CCN(C(=O)CC34CC5CC(CC(C5)C3)C4)C[C@H](C1)O2 [Compound 79, (16R)-18-[2-(Adamantan-1-yl)acetyl]-12-(2,6-dimethylphenyl)-15-oxa-8λ^6-thia-1,9,11,18,22-pentaazatetracyclo[14.4.1.13,7.110,14]tricosa-3(23),4,6,10,12,14(22)-hexaene-2,8,8-trione]"
++ (++ is 30-60%),< 1,"Cc1cccc(C)c1-c1cc2nc(n1)NS(=O)(=O)c1cccc(c1)C(=O)N1C[C@@H](CNC[C@@H]1CC(C)C)O2 [Compound 95, (16R,20S)-12-(2,6-Dimethylphenyl)-20-(2-methylpropyl)-15-oxa-8λ^6-thia-1,9,11,18,22-pentaazatetracyclo[14.4.1.13,7.110,14]tricosa-3(23),4,6,10(22),11,13-hexaene-2,8,8-trione]"
++ (++ is 30-60%),< 1,"Cc1cccc(C)c1-c1cc2nc(n1)NS(=O)(=O)c1cccc(c1)C(=O)N1C[C@@H](CN(C3CC4(CCCC4)C3)C[C@@H]1CC(C)C)O2 [Compound 97, (16R,20S)-12-(2,6-Dimethylphenyl)-20-(2-methylpropyl)-18-{spiro[3.4]octan-2-yl}-15-oxa-8λ^6-thia-1,9,11,18,22-pentaazatetracyclo[14.4.1.13,7.110,14]tricosa-3(23),4,6,10(22),11,13-hexaene-2,8,8-trione]"
++ (++ is 30-60%),< 1,"Cc1cccc(C)c1-c1cc2nc(n1)NS(=O)(=O)c1cccc(c1)C(=O)N1C[C@@H](CN(C)C[C@@H]1CC(C)C)O2 [Compound 99, (16R,20S)-12-(2,6-Dimethylphenyl)-18-methyl-20-(2-methylpropyl)-15-oxa-8λ^6-thia-1,9,11,18,22-pentaazatetracyclo[14.4.1.13,7.110,14]tricosa-3(23),4,6,10(22),11,13-hexaene-2,8,8-trione]"
++ (++ is 30-60%),< 1,"Cc1cccc(C)c1-c1cc2nc(n1)NS(=O)(=O)c1cccc(c1)C(=O)N1C[C@@H](CNC[C@H]1CC(C)C)O2 [Compound 101, (16R,20R)-12-(2,6-Dimethylphenyl)-20-(2-methylpropyl)-15-oxa-8λ^6-thia-1,9,11,18,22-pentaazatetracyclo[14.4.1.13,7.110,14]tricosa-3(23),4,6,10,12,14(22)-hexaene-2,8,8-trione]"
+++ (+++ is >600%),< 1,"Cc1cccc(C)c1-c1cc2nc(n1)NS(=O)(=O)c1cccc(c1)C(=O)N1C[C@@H](CN(C)C[C@H]1CC(C)C)O2 [Compound 103, (16R,20R)-12-(2,6-Dimethylphenyl)-18-methyl-20-(2-methylpropyl)-15-oxa-8λ^6-thia-1,9,11,18,22-pentaazatetracyclo[14.4.1.13,7.110,14]tricosa-3(23),4,6,10(22),11,13-hexaene-2,8,8-trione]"
+++ (+++ is >600%),< 1,"Cc1cccc(C)c1-c1cc2nc(n1)NS(=O)(=O)c1cccc(c1)C(=O)N1C[C@@H](CN(CC(C)(C)C)C[C@H]1CC(C)C)O2 [Compound 104, (16R,20R)-12-(2,6-Dimethylphenyl)-18-(2,2-dimethylpropyl)-20-(2-methylpropyl)-15-oxa-8λ^6-thia-1,9,11,18,22-pentaazatetracyclo[14.4.1.13,7.110,14]tricosa-3(23),4,6,10,12,14(22)-hexaene-2,8,8-trione]"
+++ (+++ is >600%),< 1,"Cc1cccc(C)c1-c1cc2nc(n1)NS(=O)(=O)c1cccc(c1)C(=O)N1C[C@H](CC(C)C)NC[C@H](C1)O2 [Compound 108, (16R,19S)-12-(2,6-Dimethylphenyl)-19-(2-methylpropyl)-15-oxa-8λ^6-thia-1,9,11,18,22-pentaazatetracyclo[14.4.1.13,7.110,14]tricosa-3(23),4,6,10(22),11,13-hexaene-2,8,8-trione]"
+++ (+++ is >600%),< 1,"Cc1cccc(C)c1-c1cc2nc(n1)NS(=O)(=O)c1cccc(c1)C(=O)N1C[C@@H](CN(C3CCC(F)(F)CC3)[C@@H](CC(C)C)C1)O2 [Compound 110, (16R,19S)-18-(4,4-Difluorocyclohexyl)-12-(2,6-dimethylphenyl)-19-(2-methylpropyl)-15-oxa-8λ^6-thia-1,9,11,18,22-pentaazatetracyclo[14.4.1.13,7.110,14]tricosa-3(23),4,6,10(22),11,13-hexaene-2,8,8-trione]"
+++ (+++ is >600%),< 1,"Cc1cccc(C)c1-c1cc2nc(n1)NS(=O)(=O)c1cccc(c1)C(=O)N1CCN(C(=O)OC(C)(C)C)[C@@H](CC(C)C)[C@H](C1)O2 [Compound 117, tert-Butyl (16S,17S)-12-(2,6-dimethylphenyl)-17-(2-methylpropyl)-2,8,8-trioxo-15-oxa-8λ^6-thia-1,9,11,18,22-pentaazatetracyclo[14.4.1.13,7.110,14]tricosa-3(23),4,6,10(22),11,13-hexaene-18-carboxylate]"
+++ (+++ is >600%),< 1,"Cc1cccc(C)c1-c1cc2nc(n1)NS(=O)(=O)c1cccc(c1)C(=O)N1C[C@@H](CN(C)C[C@H]1C(C)C)O2 [Compound 125, (16R,20R)-12-(2,6-Dimethylphenyl)-18-methyl-20-(propan-2-yl)-15-oxa-8λ^6-thia-1,9,11,18,22-pentaazatetracyclo[14.4.1.13,7.110,14]tricosa-3(23),4,6,10(22),11,13-hexaene-2,8,8-trione]"
